{
  "source": "patent US20210330756A1",
  "about": "“Acetylation of Miro1” (University of South Carolina, priority 2020, published 2021)",
  "tested_on": "axon shaft mitochondria of DRG neurons",
  "assay": "FRAP of Mito-GFP in proximal axon shaft segments of DRG neurons",
  "format": "cell-based, rat",
  "description": "To determine if the effect of growth inhibitors on mitochondrial recovery was limited to distal axons, we performed FRAP on more proximal segments of the axon shaft in DRG neurons expressing Mito-GFP. For analyses of recovery, the bleached ROIs were divided into four subregions along the axon length so that we could distinguish anterograde from retrograde transport-driven Mito-GFP recovery. […] Since this effect of MAG-Fc on recovery could derive from either axons or cell body, we cultured dissociated DRGs in microfluiclic devices where we could limit exposure to MAG-Fc and TubA to the axons.\nMito-KR- and Mito-GFP-expressing DRG neurons were used for FRAP analyses at 48-72 h after transfection. To evaluate mitochondrial motility in Mito-KR-expressing neurons, Mito-KR signals were photobleached using continual exposure to an argon laser set at 594 nm for 30 s (100% laser power) The bleached ROI was then monitored for recovery using an argon laser set at 580 nm every 10 s over 16 min (13% laser power). […]\nVesicle trafficking was quantified using differential ImageJ Difference Tracker Plug-in (Andrews et al., 2010). 50-80-μm long unbranched axon segments at approximately the mid-region between growth cone and cell body were analyzed. […] The distance between the growth tip at end of the post-CALI sequence and the pre-CALI baseline was measured using LAS-X software. […]",
  "data": [
    {"molecule": "CN1CCc2c(c3ccccc3n2Cc2ccc(C(=O)NO)cc2)C1", "note": "[TubA, tubastatin]", "values": [
      {"measurement": "effect on MAG-Fc's attenuation of axonal Mito-GFP recovery (axon shaft)", "setting": "HDAC6 inhibition with TubA", "value": "prevented by HDAC6 inhibition"},
      {"measurement": "Mito-GFP recovery pattern along axon shaft", "setting": "TubA-treated cultures", "value": "more rapid recovery in proximal segments"}
    ]}
  ]
}
